Assay results: patent US20050065218A1, “Utilization of alverine, alone or in combination with tricyclic antidepressant or a specific serotonin reuptake inhibitor for the treatment of depression” (priority 2003, published 2005)
Where “and” joins values, the source holds several entries; their conditions need not be identical. Identical values can stand only once. Counter-ions that a name gives are not always drawn.

Test system: Swiss mice CD1
Assay: forced swim test, Alverine and fluoxetine administered intraperitoneally to mice (Example 3, second test)
Assay type: in vivo
Settings: for immobility time, individual animals / immobility time, Mean: 30 minutes prior to the test; for immobility time, Mean: n = 10
Protocol: These are Swiss mice CD1 (CD-1® (ICR) IGS (Charles River France) weighing between 25 and 35 g. […] They are placed 15 to 20 per cage, over an acclimatising period of at least 5 days prior to the tests. They are identified by marking on the fur. […] The mice were divided into two test comprising six groups of 10 mice each. For the second test: The first group is the control group: it is treated only by excipient. […] The doses are expressed in terms of free active substances. The test substances are prepared extemporaneously in a saline solution. The treatments are co-administered 30 minutes prior to the test in a coded and random order intraperitoneally with a volume of 10 ml/kg (5 ml/kg for each administration). […] The total duration of immobility is measured over the last four minutes of the test, six minutes in total. A mouse is deemed immobile when it ceases struggling and floats in the water without movements superfluous to those allowing it to keep its head above water. A drop in immobility time is the reflection of an antidepressant effect. The forced swim test is a pre-clinical behavioural model, which has good predictive validity and is widely employed for determining the efficacy of antidepressant medications (Borsini and Meli, 1988). The results are expressed in total duration of immobility in seconds and as a percentage of variation of the total duration of immobility calculated from the average value of the control group. The statistical significance between two treated groups is determined by using a Student test (P<0.05) The data are analysed using <<SigmaStat>> software.

[1] = Alverine 3 mg/kg intraperitoneally
[2] = Alverine 10 mg/kg intraperitoneally

For `CCN(CCCc1ccccc1)CCCc1ccccc1` [Alverine citrate, N-ethyl-3,3′-diphenyldipropylamine], the “% of variation of immobility time vs control group” value [1] was −37%, the “Dunnett test vs control group” value [1] was “* (* indicates a significant difference for p < 0.05 (Dunnett test))” and the “immobility time, individual animals” value [1] was 119 sec and 138 sec and 117 sec (2×) and 110 sec and 73 sec and 47 sec and 124 sec and 72 sec and 32 sec. For the same compound, the “immobility time, Mean” value [1] was 94.9 s, the “% of variation of immobility time vs control group” value [2] was −49% and the “Dunnett test vs control group” value [2] was “* (* indicates a significant difference for p < 0.05 (Dunnett test))”. For the same compound, the “immobility time, individual animals” value [2] was 63 sec and 75 sec (2×) and 77 sec and 46 sec and 6 sec and 113 sec and 89 sec and 104 sec and 125 sec, the “immobility time, Mean” value [2] was 77.3 s and the “decrease in the duration of immobilisation as compared to the control group (in words)” value (tested alone at 3 mg/kg intraperitoneally) was “statistically significant decrease”.
